Experimental data taken from ChEMBL document CHEMBL1201862, “PubChem BioAssay data set” (2004).
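Each compound was tested at five concentrations against cells in 96-well plates for 48 hours. GI50 marks 50% less growth.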 The source made the active and inactive calls. No stated cut-off is given here; in the data, active = GI50 up to about 1.1 µM and inactive = higher.

What was measured:
Test in all cases: inhibition of tumour cell growth, NCI panel, 48 h
786-0 = test system: 786-0
A498 = test system: A498
CAKI-1 = test system: CAKI-1
COLO 205 = test system: COLO 205
HOP-62 = test system: HOP-62
HT-29 = test system: HT-29
KM12 = test system: KM12
LOX IMVI = test system: LOX IMVI
MCF7 = test system: MCF7
MDA-N = test system: MDA-N
NCI-H23 = test system: NCI-H23
OVCAR-4 = test system: OVCAR-4
RXF 393 = test system: RXF 393
SF-268 = test system: SF-268
SK-OV-3 = test system: SK-OV-3
SN12C = test system: SN12C
SNB-75 = test system: SNB-75
TK-10 = test system: TK-10
UACC-62 = test system: UACC-62
UO-31 = test system: UO-31

Structure (SMILES)	GI50 (786-0)	GI50 (A498)	GI50 (CAKI-1)	GI50 (COLO 205)	GI50 (HOP-62)	GI50 (HT-29)	GI50 (KM12)	GI50 (LOX IMVI)	GI50 (MCF7)	GI50 (MDA-N)	GI50 (NCI-H23)	GI50 (OVCAR-4)	GI50 (RXF 393)	GI50 (SF-268)	GI50 (SK-OV-3)	GI50 (SN12C)	GI50 (SNB-75)	GI50 (TK-10)	GI50 (UACC-62)	GI50 (UO-31)
COc1ccc(Nc2nc3ccc(C(F)(F)F)cc3nc2C(=O)O)cc1	44.8 µM (inactive)	16.7 µM (inactive)	46.8 µM (inactive)	34.1 µM (inactive)	35.5 µM (inactive)	36.9 µM (inactive)	23.5 µM (inactive)	32.5 µM (inactive)	36.6 µM (inactive)	42.2 µM (inactive)	20.6 µM (inactive)	47.8 µM (inactive)	22.9 µM (inactive)	37.7 µM (inactive)	20.4 µM (inactive)	30.3 µM (inactive)	34.1 µM (inactive)	30.3 µM (inactive)	19.1 µM (inactive)	
COC(=O)C1=C(C(=O)OC)c2cc(OC)ccc2C(C(=S)N(C)C)S1 (centres undefined)	> 100 µM (inactive)	> 100 µM (inactive)	99.1 µM (inactive)	> 100 µM (inactive)	> 100 µM (inactive)		> 100 µM (inactive)	> 100 µM (inactive)	> 100 µM (inactive)	> 100 µM (inactive)	> 100 µM (inactive)	> 100 µM (inactive)	> 100 µM (inactive)	> 100 µM (inactive)	> 100 µM (inactive)	> 100 µM (inactive)	> 100 µM (inactive)	> 100 µM (inactive)	> 100 µM (inactive)	> 100 µM (inactive)
CCCCCNC(=O)OC1CCn2c1nc1c2C(=O)C(C)=C(N2CC2)C1=O (centres undefined)	0.455 µM (active)	1.75 µM (inactive)	1.2 µM (inactive)	1.41 µM (inactive)		0.593 µM (active)	1.64 µM (inactive)	0.229 µM (active)	0.453 µM (active)	1.5 µM (inactive)	1.24 µM (inactive)	1.3 µM (inactive)	0.543 µM (active)	0.946 µM (active)		1.43 µM (inactive)	1.22 µM (inactive)	4.83 µM (inactive)	1.75 µM (inactive)	1.83 µM (inactive)
COc1ccc(Nc2nnc(CCCCCCCCc3nnc(Nc4ccc(OC)cc4)o3)o2)cc1	> 100 µM (inactive)	> 100 µM (inactive)	> 100 µM (inactive)	> 100 µM (inactive)	> 100 µM (inactive)	> 100 µM (inactive)	> 100 µM (inactive)	> 100 µM (inactive)	> 100 µM (inactive)	> 100 µM (inactive)	> 100 µM (inactive)	> 100 µM (inactive)	> 100 µM (inactive)	> 100 µM (inactive)	> 100 µM (inactive)	> 100 µM (inactive)	> 100 µM (inactive)	> 100 µM (inactive)		> 100 µM (inactive)
O=[N+]([O-])C(=C1NCCN1)C(Cl)=C(Cl)Cl	> 100 µM (inactive)	> 100 µM (inactive)	> 100 µM (inactive)	> 100 µM (inactive)	> 100 µM (inactive)	> 100 µM (inactive)	> 100 µM (inactive)	> 100 µM (inactive)	> 100 µM (inactive)	> 100 µM (inactive)	> 100 µM (inactive)	> 100 µM (inactive)	> 100 µM (inactive)	> 100 µM (inactive)	> 100 µM (inactive)	> 100 µM (inactive)		> 100 µM (inactive)	> 100 µM (inactive)	> 100 µM (inactive)
O=C1C=CC(=O)c2c1ccc1c3ccccc3n(CCCCCCCCn3c4ccccc4c4ccc5c(c43)C(=O)C=CC5=O)c21	> 100 µM (inactive)	> 100 µM (inactive)	> 100 µM (inactive)	> 100 µM (inactive)	> 100 µM (inactive)	> 100 µM (inactive)	> 100 µM (inactive)	> 100 µM (inactive)	> 100 µM (inactive)	> 100 µM (inactive)	> 100 µM (inactive)	> 100 µM (inactive)	> 100 µM (inactive)	> 100 µM (inactive)	> 100 µM (inactive)	> 100 µM (inactive)		> 100 µM (inactive)	> 100 µM (inactive)	
N#Cc1ccc(/N=N/N2CCCC2)cc1	> 100 µM (inactive)	96.8 µM (inactive)	> 100 µM (inactive)	> 100 µM (inactive)	> 100 µM (inactive)		> 100 µM (inactive)	> 100 µM (inactive)	> 100 µM (inactive)	> 100 µM (inactive)	95.1 µM (inactive)	98.9 µM (inactive)	> 100 µM (inactive)	> 100 µM (inactive)	> 100 µM (inactive)	> 100 µM (inactive)	> 100 µM (inactive)	95.9 µM (inactive)	> 100 µM (inactive)	69.8 µM (inactive)
CN(C)c1ccc(/C=c2/c3ccccc3n3c2cc(C24CC5CC(CC(C5)C2)C4)[n+]3C)cc1	0.126 µM (active)	0.314 µM (active)	0.234 µM (active)	0.0877 µM (active)	0.411 µM (active)	0.299 µM (active)	0.156 µM (active)	0.326 µM (active)	0.0615 µM (active)	0.33 µM (active)	0.261 µM (active)	0.337 µM (active)		0.555 µM (active)	0.377 µM (active)	0.324 µM (active)	0.394 µM (active)	0.39 µM (active)	0.345 µM (active)	0.29 µM (active)
O=C1N/C(=N/N=C/C(O)C(O)C(O)C(O)CO)N/C1=C\c1ccco1 (centres undefined)	> 100 µM (inactive)	> 100 µM (inactive)	> 100 µM (inactive)	> 100 µM (inactive)	> 100 µM (inactive)	> 100 µM (inactive)	> 100 µM (inactive)	> 100 µM (inactive)	> 100 µM (inactive)	> 100 µM (inactive)	> 100 µM (inactive)	> 100 µM (inactive)	> 100 µM (inactive)	> 100 µM (inactive)	> 100 µM (inactive)	> 100 µM (inactive)	> 100 µM (inactive)	> 100 µM (inactive)	> 100 µM (inactive)	
C=CCOC(=O)N1[C@H]2C#C/C=C\C#C[C@]3(O)C(=O)C[C@H](C)[C@]24O[C@]43C2=CC(=O)C=CC21OC (some centres undefined)	11.6 µM (inactive)	2.35 µM (inactive)	33.1 µM (inactive)	13.6 µM (inactive)	40.2 µM (inactive)	27.7 µM (inactive)	32.9 µM (inactive)		16.9 µM (inactive)	28.6 µM (inactive)	27.2 µM (inactive)	26.4 µM (inactive)	20.9 µM (inactive)	50.6 µM (inactive)	60.1 µM (inactive)	25 µM (inactive)	35.2 µM (inactive)	18.4 µM (inactive)	31.2 µM (inactive)	32 µM (inactive)
Cc1cc(C)cc(Nc2cc(O)nc(O)n2)c1	> 100 µM (inactive)	> 100 µM (inactive)		> 100 µM (inactive)	> 100 µM (inactive)	> 100 µM (inactive)	> 100 µM (inactive)	> 100 µM (inactive)	> 100 µM (inactive)	> 100 µM (inactive)	> 100 µM (inactive)	> 100 µM (inactive)	90.4 µM (inactive)	> 100 µM (inactive)		> 100 µM (inactive)	15.8 µM (inactive)	> 100 µM (inactive)		> 100 µM (inactive)
Cc1c(C)c(C)n(C2OC(CO)C(O)C(O)C2O)c(=S)c1C#N (centres undefined)	> 100 µM (inactive)	> 100 µM (inactive)		> 100 µM (inactive)	> 100 µM (inactive)	> 100 µM (inactive)	> 100 µM (inactive)	> 100 µM (inactive)	> 100 µM (inactive)	> 100 µM (inactive)	> 100 µM (inactive)	> 100 µM (inactive)	> 100 µM (inactive)	> 100 µM (inactive)	> 100 µM (inactive)	> 100 µM (inactive)	> 100 µM (inactive)	> 100 µM (inactive)	> 100 µM (inactive)	> 100 µM (inactive)
CC(=O)OCC1OC(NC(=S)Nn2c(-c3ccccc3)nc3ccccc3c2=O)C(OC(C)=O)C(OC(C)=O)C1OC(C)=O (centres undefined)	> 100 µM (inactive)	> 100 µM (inactive)	> 100 µM (inactive)	> 100 µM (inactive)	97.7 µM (inactive)	> 100 µM (inactive)	> 100 µM (inactive)	> 100 µM (inactive)	85.9 µM (inactive)	> 100 µM (inactive)	> 100 µM (inactive)		> 100 µM (inactive)	> 100 µM (inactive)	> 100 µM (inactive)	93.1 µM (inactive)	96.8 µM (inactive)		51.5 µM (inactive)	> 100 µM (inactive)
COc1cc(S(=O)(=O)N/N=C/c2cc(Br)c(O)c(OC)c2)c(OC)cc1NC(C)=O	27 µM (inactive)	> 100 µM (inactive)	91 µM (inactive)	23.4 µM (inactive)	> 100 µM (inactive)	34 µM (inactive)	> 100 µM (inactive)	38.6 µM (inactive)	57.4 µM (inactive)	83.6 µM (inactive)	> 100 µM (inactive)	69.3 µM (inactive)	42.6 µM (inactive)		> 100 µM (inactive)	73.8 µM (inactive)	> 100 µM (inactive)	77.3 µM (inactive)		> 100 µM (inactive)
CC1CC2OC(=N)C1(C#N)C2(C#N)C#N (centres undefined)	17.9 µM (inactive)	20.3 µM (inactive)	7.57 µM (inactive)	10.9 µM (inactive)	16.8 µM (inactive)	19.4 µM (inactive)	39.3 µM (inactive)	14.7 µM (inactive)	28 µM (inactive)	16.3 µM (inactive)	23.6 µM (inactive)		16.1 µM (inactive)	21.8 µM (inactive)	> 100 µM (inactive)	19.5 µM (inactive)	11.5 µM (inactive)	26.8 µM (inactive)	23.4 µM (inactive)	24.5 µM (inactive)
